Assays:
[1] = molecular target: T1, MK2 (Homo sapiens (Human), UniProt P49137); experiment: MK2 cellular assay (Hsp27 phosphorylation in Thp-1 cells); assay type: cell-based; settings: differentiated Thp-1 cells, compound 1 hour, 50 ng/ml LPS 15 minutes, phosphorylation of Hsp27; read-out: MK2EC50
Method: Compounds were assayed in Thp-1 human acute monocytic leukemia cells to measure inhibition of MK2 activity. Thp-1 were grown in suspension in T225 flasks. Two days prior to assay, Thp-1 cells were spun down, counted and plated at 1×10^6 cells per well of a 12 well plate in complete media containing 10 ng/ml PMA (phorbol myristate acetate) to differentiate the cells. On day of assay, cells were washed with complete media, and compound was added to differentiated Thp-1 cells for 1 hour. Cells were washed again, and complete media containing 50 ng/ml LPS (lipopolysaccharide) was added. After 15 minutes, cells were washed once with PBS and lysed on ice with BioRad Bioplex lysis buffer. 20 μg total protein from lysates were loaded on gel and blots were probed for phosphorylation of the MK2 substrate Hsp27. Dose response inhibition of MK2 signaling in differentiated Thp-1 cells was used to determine the EC50 for compounds reported in Table A in the column entitled “MK2 EC50.”

[2] = molecular target: T1, MK2; experiment: MK2 modification assessment by whole protein mass spectrometry; assay type: binding; settings: intact MK2, 60 min, 10-fold excess of compound to protein
Method in brief: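 MK2 treated with compound is analysed intact by MALDI-TOF after C4 cleanup in sinapinic acid matrix. Percent modification is the centroid mass shift against control MK2 divided by compound mass.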

[3] = molecular target: p38a activated, mitogen-activated protein kinase-activated protein kinase 2 (MAPKAP-K2 or MK-2) enzyme (Homo sapiens (Human), UniProt P49137); experiment: MK2 Omnia continuous-read kinase assay for compound potency; assay type: biochemical; settings: [MK-2]=0.4 nM, [ATP]=1.0 mM, [ST3-Sox]=10 μM
Method in brief: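 Continuous Omnia fluorescence read (λex360/λem485) every 71 s after starting with 0.4 nM MK-2, with 1.0 mM ATP (appKM 8-10 μM) and 10 μM ST3-Sox substrate.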

T1 sequence (P49137 whole entry): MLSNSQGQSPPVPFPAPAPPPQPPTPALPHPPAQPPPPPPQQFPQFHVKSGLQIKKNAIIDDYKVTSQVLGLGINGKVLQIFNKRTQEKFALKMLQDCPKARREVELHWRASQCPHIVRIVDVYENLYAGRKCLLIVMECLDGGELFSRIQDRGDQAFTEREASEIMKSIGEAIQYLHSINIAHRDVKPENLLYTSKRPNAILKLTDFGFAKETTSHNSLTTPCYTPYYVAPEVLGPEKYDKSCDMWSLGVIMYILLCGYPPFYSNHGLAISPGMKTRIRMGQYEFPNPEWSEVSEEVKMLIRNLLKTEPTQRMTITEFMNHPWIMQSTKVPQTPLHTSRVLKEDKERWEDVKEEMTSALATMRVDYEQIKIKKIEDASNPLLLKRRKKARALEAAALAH
Chain of p38a activated, mitogen-activated protein kinase-activated protein kinase 2 (MAPKAP-K2 or MK-2) enzyme (P49137 whole entry): as above

Row | SMILES | EC50 [1] [nM] | MK2 Mass Mod [2] | IC50 [3] [nM]
1 | C=CC(=O)Nc1cc(-c2cc3c(cn2)CCc2c-3[nH]c3c2C(=O)NCC3)ccc1OCCCN [II-10, N-(2-(3-aminopropoxy)-5-(7-ox-6,7,8,9,11-hexahydro-5H-pyrido[3′,4′:4,5]pyrrolo[2,3-f]isoquinolin-2-yl)phenyl)acrylamide] | 501 to 999 | E (mass modification of ≥70%) | < 100
2 | C=CC(=O)N1CCOc2ccc(-c3cc4c(cn3)CCc3c-4[nH]c4c3C(=O)NC3(CC3)C4)cc21 [II-12, 2′-(4-acryloyl-3,4-dihydro-2H-benzo[b][1,4]oxazin-6-yl)-5′,6′,10′,11′-tetrahydrospiro[cyclopropane-1,9′-pyrido[3′,4′:4,5]pyrrolo[2,3-f]isoquinolin]-7′(8′H)-one] | 501 to 999 | E (mass modification of ≥70%) | < 100
3 | C=CC(=O)Nc1cc(-c2ncc3c(n2)-c2[nH]c4c(c2CC3)C(=O)NCC4)cnc1OCCOC [II-13, N-(2-(2-methoxyethoxy)-5-(7-oxo-6,7,8,9,10,11-hexahydro-5H-pyrido[3′,4′:4,5]pyrrolo[3,2-h]quinazolin-2-yl)pyridin-3-yl)acrylamide] | 101 to 500 | E (mass modification of ≥70%) | < 100
4 | C=CC(=O)Nc1cc(-c2ncc3c(n2)-c2[nH]c4c(c2CC3)C(=O)NCC4)ccc1OCCOC [II-15, N-(2-(2-methoxyethoxy)-5-(7-oxo-6,7,8,9,10,11-hexahydro-5H-pyrido[3′,4′:4,5]pyrrolo[3,2-h]quinazolin-2-yl)phenyl)acrylamide] | < 100 | E (mass modification of ≥70%) | < 100
5 | C=CC(=O)Nc1cc(-c2cc3c(cn2)CCc2c-3[nH]c3c2C(=O)NCC3)ccc1OCCOC [II-16, N-(2-(2-methoxyethoxy)-5-(7-oxo-6,7,8,9,10,11-hexahydro-5H-pyrido[3′,4′:4,5]pyrrolo[2,3-f]isoquinolin-2-yl)phenyl)acrylamide] | < 100 | E (mass modification of ≥70%) | < 100
6 | C=CC(=O)Nc1cc(-c2cc3c(cn2)CCc2c-3[nH]c3c2C(=O)NCC3)cnc1N1CCN(C)CC1 [II-26, N-(2-(4-methylpiperazin-1-yl)-5-(7-oxo-6,7,8,9,10,11-hexahydro-SH-pyrido[3′,4′:4,5]pyrrolo[2,3-f]isoquinolin-2-yl)pyridin-3-yl)acrylamide] | 101 to 500 | E (mass modification of ≥70%) | < 100
7 | C=CC(=O)Nc1cc(-c2cc3c(ccc4c5c([nH]c43)CCC5=O)cn2)ccc1N1CCN(C)CC1 [II-e-4, N-(2-(4-methylpiperazin-1-yl)-5-(7-oxo-7,8,9,10-tetrahydrocyclopenta[4,5]pyrrolo[2,3-f]isoquinolin-2-yl)phenyl)acrylamide] | < 100 | E (mass modification of ≥70%) | < 100
8 | C=CC(=O)N1CCOc2ccc(-c3cc4c(ccc5c6c([nH]c54)CCC6=O)cn3)cc21 [II-e-8, 2-(4-acryloyl-3,4-dihydro-2H-benzo[b][1,4]oxazin-6-yl)-8,9-dihydrocyclopenta[4,5]pyrrolo[2,3-f]isoquinolin-7(10H)-one] | > 1000 | E (mass modification of ≥70%) | < 100
9 | C=CC(=O)Nc1cc(-c2cc3c(ccc4c5c(n(C)c43)CCC5=O)cn2)ccc1N1CCN(C)CC1 [II-e-15, N-(5-(10-methyl-7-oxo-7,8,9,10-tetrahydrocyclopenta[4,5]pyrrolo[2,3-f]isoquinolin-2-yl)-2-(4-methylpiperazin-1-yl)phenyl)acrylamide] | 101 to 500 | E (mass modification of ≥70%) | < 100
10 | C=CC(=O)N1CC(C)Oc2ccc(-c3cc4c(ccc5c6c([nH]c54)CCC6=O)cn3)cc21 (stereo not drawn) [II-e-17, 2-(4-acryloyl-2-methyl-3,4-dihydro-2H-benzo[b][1,4]oxazin-6-yl)-8,9-dihydrocyclopenta[4,5]pyrrolo[2,3-f]isoquinolin-7(10H)-one] | 501 to 999 | E (mass modification of ≥70%) | < 100
11 | C=CC(=O)Nc1cc(-c2cc3c(ccc4c5c([nH]c43)CCC5=O)cn2)ccc1Cl [II-e-20, N-(2-chloro-5-(7-oxo-7,8,9,10-tetrahydrocyclopenta[4,5]pyrrolo[2,3-f]isoquinolin-2-yl)phenyl)acrylamide] | 101 to 500 | E (mass modification of ≥70%) | < 100
12 | C=CC(=O)Nc1cc(-c2cc3c(ccc4c5c(n(C)c43)CCC5=O)cn2)cnc1OC [II-e-21, N-(2-methoxy-5-(10-methyl-7-oxo-7,8,9,10-tetrahydrocyclopenta[4,5]pyrrolo[2,3-f]isoquinolin-2-yl)pyridin-3-yl)acrylamide] | > 1000 | E (mass modification of ≥70%) | 501 to 999
13 | C=CC(=O)Nc1cc(-c2cc3c(ccc4c5c([nH]c43)CCC5=O)cn2)ccc1N1CCN(C(C)=O)CC1 [II-e-23, N-(2-(4-acetylpiperazin-1-yl)-5-(7-oxo-7,8,9,10-tetrahydrocyclopenta[4,5]pyrrolo[2,3-f]isoquinolin-2-yl)phenyl)acrylamide] | 501 to 999 | E (mass modification of ≥70%) | < 100
14 | C=CC(=O)Nc1cc(-c2ccc3c(ccc4sc5c(c43)NC[C@@H](C)NC5=O)n2)cnc1C [III-1, (R)—N-(2-methyl-5-(10-methyl-8-oxo-9,10,11,12-tetrahydro-8H-[1,4]diazepino[5′,6′:4,5]thieno[3,2-f]quinolin-3-yl)pyridin-3-yl)acrylamide] | < 100 | E (mass modification of ≥70%) | < 100
15 | C=CC(=O)Nc1cc(NC(=O)c2ccc3sc4c(c3c2)NC[C@@H](C)NC4=O)ccc1N1CCCC1 [III-3, (R)—N-(3-acrylamido-4-(pyrrolidin-1-yl)phenyl)-3-methyl-5-oxo-2,3,4,5-tetrahydro-1H-benzo[4,5]thieno[3,2-e][1,4]diazepine-9-carboxamide] | < 100 | E (mass modification of ≥70%) | < 100
16 | C=CC(=O)Nc1cc(NC(=O)c2ccc3sc4c(c3c2)NC[C@@H](C)NC4=O)ccc1N1CCNCC1 [III-5, (R)—N-(3-acrylamido-4-(piperazin-1-yl)phenyl)-3-methyl-5-oxo-2,3,4,5-tetrahydro-1H-benzo[4,5]thieno[3,2-e][1,4]diazepine-9-carboxamide] | > 1000 | E (mass modification of ≥70%) | < 100
17 | C=CC(=O)Nc1cc(NC(=O)c2ccc3sc4c(c3c2)NC[C@@H](C)NC4=O)ccc1F [III-6, (R)—N-(3-acrylamido-4-fluorophenyl)-3-methyl-5-oxo-2,3,4,5-tetrahydro-1H-benzo[4,5]thieno[3,2-e][1,4]diazepine-9-carboxamide] | < 100 | E (mass modification of ≥70%) | < 100
18 | C=CC(=O)Nc1cc(NC(=O)c2ccc3sc4c(c3c2)NC[C@@H](C)NC4=O)ccc1OCCOC [III-7, (R)—N-(3-acrylamido-4-(2-methoxyethoxy)phenyl)-3-methyl-5-oxo-2,3,4,5-tetrahydro-1H-benzo[4,5]thieno[3,2-e][1,4]diazepine-9-carboxamide] | > 1000 | E (mass modification of ≥70%) | < 100
19 | C=CC(=O)Nc1ccccc1NC(=O)c1ccc2sc3c(c2c1)NC[C@@H](C)NC3=O [III-10, (R)—N-(2-acrylamidophenyl)-3-methyl-5-oxo-2,3,4,5-tetrahydro-1H-benzo[4,5]thieno[3,2-e][1,4]diazepine-9-carboxamide] | > 1000 | E (mass modification of ≥70%) | 101 to 500
20 | C=CC(=O)N1CCOc2ccc(NC(=O)c3ccc4sc5c(c4c3)NC[C@@H](C)NC5=O)cc21 [III-11, (R)—N-(4-acryloyl-3,4-dihydro-2H-benzo[b][1,4]oxazin-6-yl)-3-methyl-5-oxo-2,3,4,5-tetrahydro-1H-benzo[4,5]thieno[3,2-e][1,4]diazepine-9-carboxamide] | < 100 | E (mass modification of ≥70%) | < 100
21 | C=CC(=O)Nc1cccc(NC(=O)c2ccc3sc4c(c3c2)NC[C@@H](C)NC4=O)c1 [III-12, (R)—N-(3-acrylamidophenyl)-3-methyl-5-oxo-2,3,4,5-tetrahydro-1H-benzo[4,5]thieno[3,2-e][1,4]diazepine-9-carboxamide] | 501 to 999 | F (mass modification of 31-69%) | < 100
22 | C=CC(=O)Nc1cc(-c2ccc3c(ccc4sc5c(c43)NC[C@@H](C)NC5=O)n2)ccc1F [III-13, (R)—N-(2-fluoro-5-(10-methyl-8-oxo-9,10,11,12-tetrahydro-8H-[1,4]diazepino[5′,6′:4,5]thieno[3,2-f]quinolin-3-yl)phenyl)acrylamide] | < 100 | F (mass modification of 31-69%) | < 100

— patent US11098061B2 (Celgene CAR LLC, priority 2013, dated 2021)
